{"source": "ChEMBL document CHEMBL6127067", "about": "“Discovery, Biosynthesis, and Characterization of Rodencin, a Two-Component Lanthipeptide, Harboring d-Amino Acids Introduced by the Unusual Dehydrogenase RodJA” (J Nat Prod, 2024)", "key": {"[1]": {"system": "Cell membrane", "test": "Induction of inner membrane permeability in Micrococcus flavus NIZO B423 using DNA-binding stain propidium iodide by membrane integrity assay", "format": "subcellular"}, "[2]": {"system": "Staphylococcus aureus", "test": "Antimicrobial activity against methicillin-resistant Staphylococcus aureus assessed as absence of visible growth in presence of Rod-alpha measured after 20 hrs by broth dilution assay", "format": "functional, organism-based"}, "[3]": {"system": "Cell membrane", "test": "Induction of outer membrane permeability in Escherichia coli using 1-N-Nphenylnaphthylamine fluorescent probe in presence of Rod alpha by microplate reader", "format": "subcellular"}, "[4]": {"system": "Escherichia coli", "test": "Antimicrobial activity against Escherichia coli LMG 8223 assessed as absence of visible growth measured after 20 hrs by broth dilution assay", "format": "functional, organism-based"}, "[5]": {"system": "Cell membrane", "test": "Induction of outer membrane permeability in Escherichia coli using 1-N-Nphenylnaphthylamine fluorescent probe by microplate reader", "format": "subcellular"}, "[6]": {"system": "Staphylococcus aureus", "test": "Antimicrobial activity against Staphylococcus aureus LMG 8224 assessed as absence of visible growth measured after 20 hrs by broth dilution assay", "format": "functional, organism-based"}, "[7]": {"system": "Bacillus subtilis", "test": "Antimicrobial activity against Bacillus subtilis 168 assessed as absence of visible growth measured after 20 hrs by broth dilution assay", "format": "functional, organism-based"}, "[8]": {"system": "Salmonella enterica", "test": "Antimicrobial activity against Salmonella enterica LMG 07233 assessed as absence of visible growth measured after 20 hrs by broth dilution assay", "format": "functional, organism-based"}, "[9]": {"system": "Lactococcus lactis", "test": "Antimicrobial activity against Lactococcus lactis NZ9000 assessed as absence of visible growth measured after 20 hrs by broth dilution assay", "format": "functional, organism-based"}, "[10]": {"system": "Staphylococcus aureus", "test": "Antimicrobial activity against Staphylococcus aureus LMG 15975 assessed as absence of visible growth measured after 20 hrs by broth dilution assay", "format": "functional, organism-based"}, "[11]": {"system": "Listeria monocytogenes", "test": "Antimicrobial activity against Listeria monocytogenes LMG 10470 assessed as absence of visible growth measured after 20 hrs by broth dilution assay", "format": "functional, organism-based"}, "[12]": {"system": "Bacillus cereus", "test": "Antimicrobial activity against Bacillus cereus ATCC14579 assessed as absence of visible growth measured after 20 hrs by broth dilution assay", "format": "functional, organism-based"}, "[13]": {"system": "Listeria monocytogenes", "test": "Antimicrobial activity against Listeria monocytogenes LMG 10470 assessed as absence of visible growth in presence of Rod-alpha measured after 20 hrs by broth dilution assay", "format": "functional, organism-based"}, "[14]": {"system": "Cell membrane", "test": "Induction of inner membrane permeability in Micrococcus flavus NIZO B423 using DNA-binding stain propidium iodide in presence of Rod alpha by membrane integrity assay"}, "[15]": {"system": "Micrococcus flavus", "test": "Antimicrobial activity against Micrococcus flavus NIZO B423 assessed as absence of visible growth measured after 20 hrs by broth dilution assay", "format": "functional, organism-based"}, "[16]": {"system": "Bacillus cereus", "test": "Antimicrobial activity against Bacillus cereus ATCC14579 assessed as absence of visible growth in presence of Rod-alpha measured after 20 hrs by broth dilution assay", "format": "functional, organism-based"}, "[17]": {"system": "Enterococcus faecium", "test": "Antimicrobial activity against Enterococcus faecium LMG 16003 assessed as absence of visible growth measured after 20 hrs by broth dilution assay", "format": "functional, organism-based"}, "[18]": {"system": "Enterococcus faecium", "test": "Antimicrobial activity against Enterococcus faecium LMG 16003 assessed as absence of visible growth in presence of Rod-alpha measured after 20 hrs by broth dilution assay", "format": "functional, organism-based"}, "[19]": {"system": "Listeria monocytogenes", "test": "Antimicrobial activity against Listeria monocytogenes LMG 10470 assessed as absence of visible growth in presence of Rod-beta measured after 20 hrs by broth dilution assay", "format": "functional, organism-based"}, "[20]": {"system": "Cell membrane", "test": "Induction of outer membrane permeability in Escherichia coli using 1-N-Nphenylnaphthylamine fluorescent probe in presence of Rod beta by microplate reader", "format": "subcellular"}, "[21]": {"test": "Binding affinity to externally added Lipid II (unknown origin) in Micrococcus flavus NIZO B423 broth assessed as decrease in antimicrobial activity against Micrococcus flavus by Spot-on-lawn assay"}, "[22]": {"system": "Enterococcus faecium", "test": "Antimicrobial activity against Enterococcus faecium LMG 16003 assessed as absence of visible growth in presence of Rod-beta measured after 20 hrs by broth dilution assay", "format": "functional, organism-based"}, "[23]": {"system": "Cell membrane", "test": "Induction of inner membrane permeability in Micrococcus flavus NIZO B423 using DNA-binding stain propidium iodide in presence of Rod beta by membrane integrity assay"}, "[24]": {"system": "Staphylococcus aureus", "test": "Antimicrobial activity against methicillin-resistant Staphylococcus aureus assessed as absence of visible growth in presence of Rod-beta measured after 20 hrs by broth dilution assay", "format": "functional, organism-based"}, "[25]": {"system": "Bacillus cereus", "test": "Antimicrobial activity against Bacillus cereus ATCC14579 assessed as absence of visible growth in presence of Rod-beta measured after 20 hrs by broth dilution assay", "format": "functional, organism-based"}}, "note": "The source made the active and inactive calls. No cut-off for these calls is given here."}
{"smiles": "C/C=C(/NC(=O)[C@@H](N)Cc1c[nH]c2ccccc12)C(=O)N1CCC[C@H]1C(=O)N[C@@H](C)C(=O)N[C@@H](CC(C)C)C(=O)N[C@H](C)C(=O)N[C@H](C(=O)N[C@H](C(=O)N[C@H](CC)C(=O)NCC(=O)N[C@@H](Cc1ccc(O)cc1)C(=O)N[C@H](C(=O)N[C@@H]1CSC[C@H](C(=O)N2CCC[C@H]2C(=O)N[C@H]2CCSC[C@H](C(=O)N[C@H]3CCSC[C@H](C(=O)O)NC(=O)[C@H](C)NC(=O)[C@H](CCCNC(=N)N)NC3=O)NC(=O)[C@H](C)NC(=O)[C@H]([C@@H](C)O)NC2=O)NC(=O)[C@H]([C@@H](C)O)NC(=O)[C@H](CC(N)=O)NC(=O)[C@H](CO)NC1=O)[C@@H](C)CC)[C@@H](C)CC)C(C)C", "values": [{"measurement": "Activity", "setting": "[1]", "result": "inactive"}, {"measurement": "Activity", "setting": "[2]", "result": "Active"}, {"measurement": "Activity", "setting": "[3]", "result": "Active"}, {"measurement": "Activity", "setting": "[4]", "result": "inactive"}, {"measurement": "Activity", "setting": "[5]", "result": "inactive"}, {"measurement": "Activity", "setting": "[6]", "result": "inactive"}, {"measurement": "Activity", "setting": "[7]", "result": "inactive"}, {"measurement": "Activity", "setting": "[8]", "result": "inactive"}, {"measurement": "Activity", "setting": "[9]", "result": "inactive"}, {"measurement": "Activity", "setting": "[10]", "result": "inactive"}, {"measurement": "Activity", "setting": "[11]", "result": "inactive"}, {"measurement": "Activity", "setting": "[12]", "result": "inactive"}, {"measurement": "Activity", "setting": "[13]", "result": "Active"}, {"measurement": "Activity", "setting": "[14]", "result": "Active"}, {"measurement": "Activity", "setting": "[15]", "result": "inactive"}, {"measurement": "Activity", "setting": "[16]", "result": "Active"}, {"measurement": "Activity", "setting": "[17]", "result": "inactive"}, {"measurement": "Activity", "setting": "[18]", "result": "Active"}]}
{"smiles": "C/C=C(\\NC(=O)[C@H](CC(N)=O)NC(=O)/C(=C/C)NC(=O)[C@@H]1CCSC[C@@H](N)C(=O)N1)C(=O)N[C@@H](Cc1ccccc1)C(=O)N[C@H](C)C(=O)N[C@@H](CC(C)C)C(=O)N[C@@H]1CSC[C@H](C(=O)N[C@H]2CCSC[C@H]3NC(=O)[C@H](CCC(=O)O)NC(=O)[C@H](CCCCN)NC(=O)[C@@H](CSC[C@H](C(=O)O)NC(=O)[C@H](Cc4c[nH]c5ccccc45)NC(=O)[C@H](C)NC(=O)[C@H](CCSC)NC3=O)NC(=O)[C@H](C(C)C)NC2=O)NC(=O)[C@H](Cc2c[nH]c3ccccc23)NC(=O)CNC(=O)CNC(=O)[C@H](CCCCN)NC(=O)[C@H](CC(N)=O)NC(=O)CNC(=O)[C@H](Cc2c[nH]c3ccccc23)NC(=O)[C@H](Cc2ccc(O)cc2)NC(=O)[C@H](CC(=O)O)NC1=O", "values": [{"measurement": "Activity", "setting": "[1]", "result": "inactive"}, {"measurement": "Activity", "setting": "[4]", "result": "inactive"}, {"measurement": "Activity", "setting": "[5]", "result": "inactive"}, {"measurement": "Activity", "setting": "[19]", "result": "Active"}, {"measurement": "Activity", "setting": "[20]", "result": "Active"}, {"measurement": "Activity", "setting": "[6]", "result": "inactive"}, {"measurement": "Activity", "setting": "[7]", "result": "inactive"}, {"measurement": "Activity", "setting": "[8]", "result": "inactive"}, {"measurement": "Activity", "setting": "[9]", "result": "inactive"}, {"measurement": "Activity", "setting": "[10]", "result": "inactive"}, {"measurement": "Activity", "setting": "[11]", "result": "inactive"}, {"measurement": "Activity", "setting": "[12]", "result": "inactive"}, {"measurement": "Activity", "setting": "[21]", "result": "Active"}, {"measurement": "Activity", "setting": "[22]", "result": "Active"}, {"measurement": "Activity", "setting": "[15]", "result": "inactive"}, {"measurement": "Activity", "setting": "[23]", "result": "Active"}, {"measurement": "Activity", "setting": "[24]", "result": "Active"}, {"measurement": "Activity", "setting": "[17]", "result": "inactive"}, {"measurement": "Activity", "setting": "[25]", "result": "Active"}]}
